# Laboratory results taken from patent US20260146035A1, “FUSED BICYCLIC COMPOUNDS AND THEIR USE AS MER AND AXL INHIBITORS” (DONG-A ST CO., LTD., priority 2022, published 2026).
# Read-outs that look alike come from different tables or passages of the source.
# Key:
# human MER (528-end) = biological target: T1, human MER (528-end) (Homo sapiens, UniProt Q12866); test: HTRF kinase activity biochemical assay, MER; conditions: 10 μM ATP, 30 minutes pre-incubation; read-out: HTRF MERTK IC50
# T1 construct: human MER (528-end); purchased Camnabio, Japan
# T1 sequence (Q12866 528-999 limits assumed): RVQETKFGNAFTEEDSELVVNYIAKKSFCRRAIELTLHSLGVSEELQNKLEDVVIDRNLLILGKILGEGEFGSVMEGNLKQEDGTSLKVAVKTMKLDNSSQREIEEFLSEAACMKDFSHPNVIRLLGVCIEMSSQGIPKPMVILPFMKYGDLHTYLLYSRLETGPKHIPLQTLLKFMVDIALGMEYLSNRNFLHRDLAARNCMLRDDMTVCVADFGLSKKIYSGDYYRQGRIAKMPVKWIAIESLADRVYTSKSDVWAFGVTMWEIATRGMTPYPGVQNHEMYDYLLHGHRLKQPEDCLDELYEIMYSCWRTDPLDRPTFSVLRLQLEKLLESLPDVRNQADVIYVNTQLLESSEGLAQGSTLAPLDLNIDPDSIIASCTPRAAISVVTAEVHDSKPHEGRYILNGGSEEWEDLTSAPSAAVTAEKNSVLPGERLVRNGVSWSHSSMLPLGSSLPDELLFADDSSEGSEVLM
# human AXL (473-end) = biological target: T2, human AXL (473-end) (Homo sapiens, UniProt P30530); test: HTRF kinase activity biochemical assay, AXL; conditions: 10 μM ATP, 30 minutes pre-incubation
# T2 construct: human AXL (473-end); purchased SignalChem, Canada
# T2 sequence (P30530 473-894 limits assumed): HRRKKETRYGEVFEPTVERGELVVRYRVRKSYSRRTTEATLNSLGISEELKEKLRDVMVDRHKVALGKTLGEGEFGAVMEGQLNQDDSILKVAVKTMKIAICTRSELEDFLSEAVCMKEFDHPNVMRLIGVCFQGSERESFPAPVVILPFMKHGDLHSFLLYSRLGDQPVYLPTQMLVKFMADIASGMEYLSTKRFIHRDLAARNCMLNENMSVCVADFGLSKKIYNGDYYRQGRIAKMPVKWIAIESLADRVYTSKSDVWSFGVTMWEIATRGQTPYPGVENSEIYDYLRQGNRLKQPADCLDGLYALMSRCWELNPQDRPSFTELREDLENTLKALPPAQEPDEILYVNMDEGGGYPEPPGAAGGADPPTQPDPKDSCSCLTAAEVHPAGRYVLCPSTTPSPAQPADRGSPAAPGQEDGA
# human TYRO3 (455-end) = biological target: T3, human TYRO3 (455-end) (Homo sapiens, UniProt Q06418); test: HTRF kinase activity biochemical assay, TYRO3
# T3 construct: TYRO3 (455-end); purchased SignalChem, Canada
# T3 sequence (Q06418 455-890 limits assumed): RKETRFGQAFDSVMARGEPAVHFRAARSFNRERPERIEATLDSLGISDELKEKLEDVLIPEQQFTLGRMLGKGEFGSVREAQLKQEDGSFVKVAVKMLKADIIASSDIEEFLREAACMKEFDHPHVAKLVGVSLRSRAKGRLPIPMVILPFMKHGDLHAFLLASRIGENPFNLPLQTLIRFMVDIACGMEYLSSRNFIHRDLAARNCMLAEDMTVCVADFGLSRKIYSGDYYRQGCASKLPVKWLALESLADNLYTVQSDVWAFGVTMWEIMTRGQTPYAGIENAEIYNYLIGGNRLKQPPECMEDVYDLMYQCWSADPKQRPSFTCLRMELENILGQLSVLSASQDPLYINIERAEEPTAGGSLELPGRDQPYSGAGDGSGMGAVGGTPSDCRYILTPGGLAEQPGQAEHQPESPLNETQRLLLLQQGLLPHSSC
# [1] = 10 μM ATP, 30 minutes pre-incubation, read-out: HTRF TYRO IC50
structure (smiles),measurement,setting,value
"Cn1cc(-c2cnc(N)c(C(=O)N[C@H]3CCC[C@@H]3OCc3ccc(-c4ccc5c(c4)CCC5N4CCN(CC5COC(C)(C)O5)CC4)cc3)c2)cn1 (stereo partly drawn) [Example 79, 2-amino-N-[(1S,2S)-2-{[4-(1-{4-[(2,2-dimethyl-1,3-dioxolan-4-yl)methyl]piperazin-1-yl}-2,3-dihydro-1H-inden-5-yl)phenyl]methoxy}cyclopentyl]-5-(1-methyl-1H-pyrazol-4-yl)pyridine-3-carboxamide]",IC50,human MER (528-end),< 10 nM
same,IC50,human AXL (473-end),< 10 nM
same,IC50,human TYRO3 (455-end); [1],> 1000 nM
"Cn1cc(-c2cnc(N)c(C(=O)N[C@H]3CCC[C@@H]3OCc3ccc(-c4cnc5c(c4)C(C)(C)C(=O)N5C4CCN(CCO)CC4)cc3)c2)cn1 [Example 76, 2-amino-N-{(1S,2S)-2-[(4-{1-[1-(2-hydroxyethyl)piperidin-4-yl]-3,3-dimethyl-2-oxo-2,3-dihydro-1H-pyrrolo[2,3-b]pyridin-5-yl}phenyl)methoxy]cyclopentyl}-5-(1-methyl-1H-pyrazol-4-yl)pyridine-3-carboxamide]",IC50,human MER (528-end),10 to 100 nM
same,IC50,human AXL (473-end),100 to 1000 nM
same,IC50,human TYRO3 (455-end),100 to 1000 nM
"CN(C)C1c2ccc(-c3ccc(CO[C@H]4CCC[C@@H]4NC(=O)c4cc(-c5cnn(C)c5)cnc4N)cc3)cc2CC1(C)C (stereo partly drawn) [Example 109, 2-amino-N-[(1S,2S)-2-({4-[1-(dimethylamino)-2,2-dimethyl-2,3-dihydro-1H-inden-5-yl]phenyl}methoxy)cyclopentyl]-5-(1-methyl-1H-pyrazol-4-yl)pyridine-3-carboxamide]",IC50,human MER (528-end),10 to 100 nM
same,IC50,human AXL (473-end),< 10 nM
same,IC50,human TYRO3 (455-end); [1],> 1000 nM
"Cn1cc(-c2cnc(N)c(C(=O)N[C@H]3CCC[C@@H]3OCc3ccc(-c4ccc5c(c4)C4(CCOC4)CN5C4CCN(CCO)CC4)cc3)c2)cn1 (stereo partly drawn) [Example 43, 2-amino-N-{(1S,2S)-2-[(4-{1-[1-(2-hydroxyethyl)piperidin-4-yl]-1,2-dihydrospiro[indole-3,3′-oxolan]-5-yl}phenyl)methoxy]cyclopentyl}-5-(1-methyl-1H-pyrazol-4-yl)pyridine-3-carboxamide]",IC50,human MER (528-end),< 10 nM
same,IC50,human AXL (473-end),100 to 1000 nM
same,IC50,human TYRO3 (455-end); [1],100 to 1000 nM
"Nc1ncc(-c2cncs2)cc1C(=O)N[C@H]1CCC[C@@H]1OCc1ccc(-c2ccc3c(c2)CC[C@@H]3N2CCN(CCO)CC2)cc1 [Example 176, 2-amino-N-{(1S,2S)-2-[(4-{(1S)-1-[4-(2-hydroxyethyl)piperazin-1-yl]-2,3-dihydro-1H-inden-5-yl}phenyl)methoxy]cyclopentyl}-5-(1,3-thiazol-5-yl)pyridine-3-carboxamide]",IC50,human MER (528-end),< 10 nM
same,IC50,human AXL (473-end),< 10 nM
same,IC50,human TYRO3 (455-end); [1],10 to 100 nM
"Cn1cc(-c2cnc(N)c(C(=O)N[C@H]3CCC[C@@H]3OCc3ccc(-c4ccc5c(c4)C(C)(C)CN5C4CCN(CC(O)CO)CC4)cc3)c2)cn1 (stereo partly drawn) [Example 23, 2-amino-N-{(1S,2S)-2-[(4-{1-[1-(2,3-dihydroxypropyl)piperidin-4-yl]-3,3-dimethyl-2,3-dihydro-1H-indol-5-yl}phenyl)methoxy]cyclopentyl}-5-(1-methyl-1H-pyrazol-4-yl)pyridine-3-carboxamide]",IC50,human MER (528-end),< 10 nM
same,IC50,human AXL (473-end),< 10 nM
same,IC50,human TYRO3 (455-end); [1],< 10 nM
"Nc1ncc(-c2ccc(F)nc2)cc1C(=O)N[C@H]1CCC[C@@H]1OCc1ccc(-c2ccc3c(ccn3C3CCN(CCO)CC3)c2)cc1 [Example 22, 6-amino-6′-fluoro-N-{(1S,2S)-2-[(4-{1-[1-(2-hydroxyethyl)piperidin-4-yl]-1H-indol-5-yl}phenyl)methoxy]cyclopentyl}[3,3′-bipyridine]-5-carboxamide]",IC50,human MER (528-end),< 10 nM
same,IC50,human AXL (473-end),10 to 100 nM
same,IC50,human TYRO3 (455-end); [1],100 to 1000 nM
"N#Cc1ccc(-c2cnc(N)c(C(=O)N[C@H]3CCC[C@@H]3OCc3ccc(-c4ccc5c(c4)CC[C@@H]5N4CCN(CCO)CC4)cc3)c2)cn1 [Example 153, 6-amino-6′-cyano-N-{(1S,2S)-2-[(4-{(1S)-1-[4-(2-hydroxyethyl)piperazin-1-yl]-2,3-dihydro-1H-inden-5-yl}phenyl)methoxy]cyclopentyl}[3,3′-bipyridine]-5-carboxamide]",IC50,human MER (528-end),< 10 nM
same,IC50,human AXL (473-end),< 10 nM
same,IC50,human TYRO3 (455-end); [1],100 to 1000 nM
"CN1C[C@H](NC(=O)c2cc(-c3ccc(F)nc3)cnc2N)[C@@H](OCc2ccc(-c3ccc4c(c3)C(C)(C)CN4C3CCN(CCO)CC3)cc2)C1 [Example 37, 6-amino-6′-fluoro-N-{(3S,4S)-4-[(4-{1-[1-(2-hydroxyethyl)piperidin-4-yl]-3,3-dimethyl-2,3-dihydro-1H-indol-5-yl}phenyl)methoxy]-1-methylpyrrolidin-3-yl}[3,3′-bipyridine]-5-carboxamide]",IC50,human MER (528-end),< 10 nM
same,IC50,human AXL (473-end),10 to 100 nM
same,IC50,human TYRO3 (455-end); [1],100 to 1000 nM
"CC1(C)CN(C2CCN(CCO)CC2)c2ccc(-c3ccc(CO[C@H]4COC[C@@H]4NC(=O)c4cc(-c5cncc(F)c5)cnc4N)cc3)cc21 [Example 44, 6-amino-5′-fluoro-N-{(3S,4R)-4-[(4-{1-[1-(2-hydroxyethyl)piperidin-4-yl]-3,3-dimethyl-2,3-dihydro-1H-indol-5-yl}phenyl)methoxy]oxolan-3-yl}[3,3′-bipyridine]-5-carboxamide]",IC50,human MER (528-end),< 10 nM
same,IC50,human AXL (473-end),100 to 1000 nM
same,IC50,human TYRO3 (455-end); [1],100 to 1000 nM
"CC1(C)C[C@@H](N2CCN(CCO)CC2)c2ccc(-c3ccc(CO[C@H]4CCC[C@@H]4NC(=O)c4cc(-c5cccnc5F)cnc4N)cc3)cc21 [Example 135, 6-amino-2′-fluoro-N-{(1S,2S)-2-[(4-{(1R)-1-[4-(2-hydroxyethyl)piperazin-1-yl]-3,3-dimethyl-2,3-dihydro-1H-inden-5-yl}phenyl)methoxy]cyclopentyl}[3,3′-bipyridine]-5-carboxamide]",IC50,human MER (528-end),< 10 nM
same,IC50,human AXL (473-end),< 10 nM
same,IC50,human TYRO3 (455-end); [1],100 to 1000 nM
"Cn1cc(-c2cnc(N)c(C(=O)N[C@H]3CCC[C@@H]3OCc3ccc(-c4ccc5c(c4)OCCC5N4CCN(CCO)CC4)cc3)c2)cn1 (stereo partly drawn) [Example 121, 2-amino-N-{(1S,2S)-2-[(4-{4-[4-(2-hydroxyethyl)piperazin-1-yl]-3,4-dihydro-2H-1-benzopyran-7-yl}phenyl)methoxy]cyclopentyl}-5-(1-methyl-1H-pyrazol-4-yl)pyridine-3-carboxamide]",IC50,human MER (528-end),< 10 nM
same,IC50,human AXL (473-end),< 10 nM
same,IC50,human TYRO3 (455-end); [1],10 to 100 nM
"Nc1ncc(-c2ccc(F)nc2)cc1C(=O)N[C@H]1CCC[C@@H]1OCc1ccc(-c2ccc3c(c2)CC[C@H]3N2CCN3C[C@H](O)C[C@H]3C2)cc1 [Example 118, 6-amino-6′-fluoro-N-{(1S,2S)-2-[(4-{(1R)-1-[(7R,8aS)-7-hydroxyhexahydropyrrolo[1,2-a]pyrazin-2 (1H)-yl]-2,3-dihydro-1H-inden-5-yl}phenyl)methoxy]cyclopentyl}[3,3′-bipyridine]-5-carboxamide]",IC50,human MER (528-end),< 10 nM
same,IC50,human AXL (473-end),10 to 100 nM
same,IC50,human TYRO3 (455-end); [1],> 1000 nM
"Cn1cc(-c2cnc(N)c(C(=O)N[C@H]3CCC[C@@H]3OCc3ccc(-c4ccc5c(c4)CC[C@@H]5N4CCN(CC(O)CO)CC4)cc3)c2)cn1 (stereo partly drawn) [Example 98, 2-amino-N-{(1S,2S)-2-[(4-{(1S)-1-[4-(2,3-dihydroxypropyl)piperazin-1-yl]-2,3-dihydro-1H-inden-5-yl}phenyl)methoxy]cyclopentyl}-5-(1-methyl-1H-pyrazol-4-yl)pyridine-3-carboxamide]",IC50,human MER (528-end),< 10 nM
same,IC50,human AXL (473-end),< 10 nM
same,IC50,human TYRO3 (455-end); [1],10 to 100 nM
"Cn1cc(-c2cnc(N)c(C(=O)N[C@H]3CCC[C@@H]3OCc3ccc(-c4ccc5c(c4)C(C)(C)CN5C4CCN(CCO)CC4)cc3)c2)cn1 [Example 13, 2-amino-N-{(1S,2S)-2-[(4-{1-[1-(2-hydroxyethyl)piperidin-4-yl]-3,3-dimethyl-2,3-dihydro-1H-indol-5-yl}phenyl)methoxy]cyclopentyl}-5-(1-methyl-1H-pyrazol-4-yl)pyridine-3-carboxamide]",IC50,human MER (528-end),< 10 nM
same,IC50,human AXL (473-end),< 10 nM
same,IC50,human TYRO3 (455-end); [1],10 to 100 nM
